Source: ChEMBL document CHEMBL1143033, “Nodulisporol and Nodulisporone, novel specific inhibitors of human DNA polymerase lambda from a fungus, Nodulisporium sp” (Bioorg Med Chem, 2007)

What was measured:
[1] = Inhibition of human DNA polymerase epsilon
DNA polymerase lambda = biological target: T1, DNA polymerase lambda (Homo sapiens, UniProt Q9UGP5); assay: Inhibition of human DNA polymerase lambda
T1 sequence (Q9UGP5 whole entry): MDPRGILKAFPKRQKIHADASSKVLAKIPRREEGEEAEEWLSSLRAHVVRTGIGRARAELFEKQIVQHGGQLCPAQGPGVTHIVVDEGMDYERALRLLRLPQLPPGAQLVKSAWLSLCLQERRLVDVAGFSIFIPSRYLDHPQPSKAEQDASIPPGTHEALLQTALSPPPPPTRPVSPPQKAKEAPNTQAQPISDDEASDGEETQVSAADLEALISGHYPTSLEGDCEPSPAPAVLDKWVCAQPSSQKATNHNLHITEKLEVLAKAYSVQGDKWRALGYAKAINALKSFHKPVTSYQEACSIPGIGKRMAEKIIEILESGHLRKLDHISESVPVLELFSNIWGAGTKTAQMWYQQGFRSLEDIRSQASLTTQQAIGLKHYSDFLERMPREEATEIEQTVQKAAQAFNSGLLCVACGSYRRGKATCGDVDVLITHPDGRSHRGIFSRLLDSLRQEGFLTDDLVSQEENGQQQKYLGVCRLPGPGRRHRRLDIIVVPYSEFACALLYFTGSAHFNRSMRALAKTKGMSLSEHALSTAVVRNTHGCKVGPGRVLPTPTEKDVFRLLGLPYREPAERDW

[2] = Inhibition of human DNA polymerase gamma
DNA polymerase beta = DNA polymerase beta (Rattus norvegicus, UniProt P06766); assay: Inhibition of rat DNA polymerase beta
[3] = biological target: T2, DNA polymerase delta catalytic subunit (Homo sapiens, UniProt P28340); assay: Inhibition of human DNA polymerase delta
T2 sequence (P28340 whole entry): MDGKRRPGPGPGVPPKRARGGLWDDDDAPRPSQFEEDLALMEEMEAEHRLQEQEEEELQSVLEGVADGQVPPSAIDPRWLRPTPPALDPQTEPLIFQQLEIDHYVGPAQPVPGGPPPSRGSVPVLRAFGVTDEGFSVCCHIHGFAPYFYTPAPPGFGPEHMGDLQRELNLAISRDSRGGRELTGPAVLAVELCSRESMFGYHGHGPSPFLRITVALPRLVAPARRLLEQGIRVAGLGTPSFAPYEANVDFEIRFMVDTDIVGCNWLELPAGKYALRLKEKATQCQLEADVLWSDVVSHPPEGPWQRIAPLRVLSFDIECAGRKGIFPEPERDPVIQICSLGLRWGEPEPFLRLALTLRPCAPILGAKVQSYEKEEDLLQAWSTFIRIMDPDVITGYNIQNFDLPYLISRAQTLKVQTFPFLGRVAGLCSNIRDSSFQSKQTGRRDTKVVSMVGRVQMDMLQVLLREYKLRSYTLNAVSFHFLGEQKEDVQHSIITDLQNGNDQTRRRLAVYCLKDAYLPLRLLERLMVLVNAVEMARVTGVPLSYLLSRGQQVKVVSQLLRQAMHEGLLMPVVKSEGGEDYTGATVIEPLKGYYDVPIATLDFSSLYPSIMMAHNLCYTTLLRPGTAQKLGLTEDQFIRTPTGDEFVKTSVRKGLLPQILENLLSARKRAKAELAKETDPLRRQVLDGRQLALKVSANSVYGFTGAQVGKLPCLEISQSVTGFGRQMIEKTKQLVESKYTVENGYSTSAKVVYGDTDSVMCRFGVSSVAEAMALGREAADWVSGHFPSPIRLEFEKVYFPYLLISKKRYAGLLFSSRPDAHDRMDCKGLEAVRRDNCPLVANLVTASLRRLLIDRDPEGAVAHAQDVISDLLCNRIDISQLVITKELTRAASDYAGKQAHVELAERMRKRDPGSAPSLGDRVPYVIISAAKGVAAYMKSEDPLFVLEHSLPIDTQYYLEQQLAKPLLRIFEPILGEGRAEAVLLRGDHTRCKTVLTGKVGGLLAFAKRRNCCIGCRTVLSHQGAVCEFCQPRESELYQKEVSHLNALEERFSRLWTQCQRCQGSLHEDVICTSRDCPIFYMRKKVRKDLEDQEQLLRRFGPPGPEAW

[4] = Inhibition of calf DNA polymerase alpha; set-up: species or system Bos taurus

SMILES	IC50 [1]	IC50 (DNA polymerase lambda)	IC50 [2]	IC50 (DNA polymerase beta)	IC50 [3]	IC50 [4]
COc1cc(O)c2c(=O)c(CO)c(C)oc2c1	> 1000 µM	454 µM	> 1000 µM	> 1000 µM	> 1000 µM	> 1000 µM
CC1Cc2c(C=O)ccc(O)c2C(=O)O1 (configuration not stated)	> 1000 µM	275 µM	> 1000 µM	> 1000 µM	> 1000 µM	> 1000 µM
COc1ccc(C)c2c1C(=O)OC(C)C2 (configuration not stated)	> 1000 µM	49 µM	> 1000 µM	> 1000 µM	> 1000 µM	> 1000 µM
COc1cccc2c1C(=O)OC(C)C2 (configuration not stated)	> 1000 µM	180 µM	> 1000 µM	> 1000 µM	> 1000 µM	> 1000 µM
CC1Cc2cccc(O)c2C(=O)O1 (configuration not stated) [MELLEIN]	> 1000 µM	316 µM	> 1000 µM	> 1000 µM	> 1000 µM	> 1000 µM
COc1cccc2c1C(O)CCC2O (configuration not stated) [NODULISPOROL]	> 1000 µM	168 µM	> 1000 µM	> 1000 µM	> 1000 µM	> 1000 µM
COc1cccc2c1C(=O)CCC2O (configuration not stated) [NODULISPORONE]	> 1000 µM	82 µM	> 1000 µM	> 1000 µM	> 1000 µM	> 1000 µM
